Entries after “also recorded” stand apart in the source; their conditions may differ.
Assays:
[1] = Dynamic vapour sorption (DVS) with XRPD of retained solid; assay type: physicochemical
Experimental: 10-20 mg of sample was placed into a mesh vapour sorption balance pan and loaded into a DVS-1 dynamic vapour sorption balance by Surface Measurement Systems. The sample was subjected to a ramping profile from 40-90% relative humidity (RH) at 10% increments, maintaining the sample at each step until a stable weight had been achieved (dm/dt 0.004%, minimum step length 30 minutes, maximum step length 500 minutes) at 25° C. After completion of the sorption cycle, the sample was dried using the same procedure to 0% RH and then a second sorption cycle back to 40% RH. Two cycles were performed. The weight change during the sorption/desorption cycles were plotted, allowing for the hygroscopic nature of the sample to be determined. XRPD analysis was then carried out on any solid retained.

[2] = Primary crystallization screen: XRPD before and after drying at 40° C.; assay type: physicochemical; set-up: key to XRPD Pattern Post-Thermal Cycling / XRPD Pattern Anti-Solvent Addition / XRPD Pattern Evaporation / XRPD Pattern Post-Thermal Cycling (dried): 1—Free base Pattern 1; 2—Free base Pattern 2; 3—Free base Pattern 3; 4—Free base Pattern 4; S—Potential Salt Pattern 1; A—Amorphous; C—Counterion present; *—Poorly crystalline; t—Results obtained from temperature cycling; e—Results obtained from evaporation
Experimental: • 34×40 mg of Compound A was weighed into vials before the selected solvents were added to prepare slurries, where possible. See Table 29 for a list of solvent systems used and the volume of solvent used. • Stirrer bars were added to the vials, before the vials were sealed and temperature cycled with stirring between 5° C. and 40° C. The heating rate was 0.1° C./min and the samples were held at 5° C. and 40° C. for 2 hours. • After temperature cycling for 4 days, observations were made (see Table 29). Slurries were centrifuge filtered and the solids were analyzed by XRPD • The solids were dried at 40° C. for approximately 18 h before being re-analyzed by XRPD. • Saturated solutions were then split into 3 vials for the following experiments • Evaporation at ambient temperature • Cooling (5° C.). • Where no solids were obtained after 72 hours, the samples were moved to the freezer at −20° C. for further cooling. • Where no solids were obtained from further cooling, the samples were allowed to evaporate at ambient temperature. • Anti-solvent addition at ambient temperature. • Where no solids were obtained after 72 hours the samples were moved to the freezer at −20° C. to encourage crystallization. • Where no solids were obtained from cooling, the samples were allowed to evaporate at ambient temperature.

[3] = Acetonitrile:Water (75:25% v/v)
[4] = Dichloromethane:Methanol (50:50% v/v)
[5] = Dichloromethane:Methanol (75:25% v/v)

- hygroscopic nature (DVS) ([1]; 25° C.): hygroscopic
- average mass uptake of water (DVS) ([1]; at 90% RH, 25° C.): 4.08 wt. %
- mass uptake of water (DVS), equivalents ([1]; at 90% RH, 25° C.): 1.91 eq.
- XRPD Pattern Anti-Solvent Addition ([2]; 1,4-Dioxane): A
- XRPD Pattern Cooling ([2]; 1,4-Dioxane): A e
- XRPD Pattern Evaporation ([2]; 1,4-Dioxane): A x
- XRPD Pattern Post-Thermal Cycling ([2]; 1,4-Dioxane): A
- XRPD Pattern Post-Thermal Cycling (dried) ([2]; 1,4-Dioxane): A *
- XRPD Pattern Evaporation ([2]; 1-Propanol): A
- XRPD Pattern Evaporation ([2]; 2-Butanone (MEK)): 1
- XRPD Pattern Evaporation ([2]; Acetone:Water (90:10% v/v)): 2
- XRPD Pattern Anti-Solvent Addition ([2]; Acetonitrile): A x
- XRPD Pattern Evaporation ([2]; Acetonitrile): A +
- XRPD Pattern Post-Thermal Cycling ([2]; Acetonitrile): 1
- XRPD Pattern Post-Thermal Cycling (dried) ([2]; Acetonitrile): 1
- XRPD Pattern Evaporation [2, 3]: 6 (6—Free base Pattern 6)
- XRPD Pattern Post-Thermal Cycling [2, 3]: 6 (6—Free base Pattern 6)
- XRPD Pattern Post-Thermal Cycling (dried) [2, 3]: 6 (6—Free base Pattern 6)
- XRPD Pattern Post-Thermal Cycling ([2]; Anisole): 5 (5—Free base Pattern 5)
- XRPD Pattern Post-Thermal Cycling (dried) ([2]; Anisole): 8 (8—Free base Pattern 8)
- XRPD Pattern Post-Thermal Cycling ([2]; Butyl acetate): 1
- XRPD Pattern Post-Thermal Cycling (dried) ([2]; Butyl acetate): 1
- XRPD Pattern Post-Thermal Cycling ([2]; Dichloromethane): 6 (6—Free base Pattern 6)
- XRPD Pattern Post-Thermal Cycling (dried) ([2]; Dichloromethane): 6 (6—Free base Pattern 6)
- XRPD Pattern Post-Thermal Cycling [2, 4]: 2
- XRPD Pattern Post-Thermal Cycling (dried) [2, 4]: 2
- XRPD Pattern Anti-Solvent Addition [2, 5]: A
- XRPD Pattern Cooling [2, 5]: A e
- XRPD Pattern Evaporation ([2]; Diethyl ether): A x
- XRPD Pattern Evaporation ([2]; Ethanol): A x
- XRPD Pattern Evaporation ([2]; Ethanol:Water (50:50% v/v)): A x
- XRPD Pattern Post-Thermal Cycling ([2]; Ethyl acetate): 1
- XRPD Pattern Post-Thermal Cycling (dried) ([2]; Ethyl acetate): 1
- XRPD Pattern Evaporation ([2]; Isopropyl acetate): A x
- XRPD Pattern Cooling ([2]; Methanol): A e
- XRPD Pattern Evaporation ([2]; Methanol): A x
- XRPD Pattern Evaporation ([2]; Methylisobutyl ketone): A x
- XRPD Pattern Post-Thermal Cycling ([2]; Methylisobutyl ketone): 1
- XRPD Pattern Post-Thermal Cycling (dried) ([2]; Methylisobutyl ketone): 1
- XRPD Pattern Anti-Solvent Addition ([2]; N,N′-Dimethylacetamide): 1
- XRPD Pattern Anti-Solvent Addition ([2]; N,N′-Dimethylformamide): 1
- XRPD Pattern Cooling ([2]; N,N′-Dimethylformamide): A e
- XRPD Pattern Evaporation ([2]; N,N′-Dimethylformamide): 1
- XRPD Pattern Post-Thermal Cycling ([2]; Tetrahydrofuran): 1
- XRPD Pattern Post-Thermal Cycling (dried) ([2]; Tetrahydrofuran): 1
- XRPD Pattern Anti-Solvent Addition ([2]; Tetrahydrofuran:Water (98:2% v/v)): A
- XRPD Pattern Post-Thermal Cycling ([2]; Toluene): 7 (7—Free base Pattern 7)
- XRPD Pattern Post-Thermal Cycling (dried) ([2]; Toluene): 8 (8—Free base Pattern 8)
- XRPD Pattern Post-Thermal Cycling ([2]; Water): A
- XRPD Pattern Post-Thermal Cycling (dried) ([2]; Water): A
Structure (SMILES): COc1cc(O[C@H]2C(C)(C)[C@H](NC(=O)c3ccc(N4CCC(CN5CCN(c6ccc(C(=O)N[C@H]7CCC(=O)NC7=O)c(F)c6)CC5)CC4)cc3)C2(C)C)ccc1C#N [Compound A, 4-(4-((1-(4-(((1R,3R)-3-(4-cyano-3-methoxyphenoxy)-2,2,4,4-tetramethylcyclobutyl)carbamoyl)phenyl)piperidin-4-yl)methyl)piperazin-1-yl)-N—((S)-2,6-dioxopiperidin-3-yl)-2-fluorobenzamide]
- form by XRPD post DVS [1]: Crystallization was not observed; also recorded: remained amorphous by XRPD
